# What was measured:
# P. aeruginosa = assay: microbe, parasite or virus in culture; settings: P. aeruginosa UNT 138-1 spontaneous mutant
# Outline: (§1)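 MICs were scored by eye after 18-20 h static incubation at 37 °C, with bacteria at 5 × 10^5 CFU mL^−1 in MHB. Peptides were serially diluted 2-fold over 12 points, top 128 or 64 μg mL^−1. CAMHB (CLSI) and 1% agarose-MHB variants were also run, at least six replicates.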
# E. coli = assay: microbe, parasite or virus in culture
# Outline: as §1
compound,measurement,setting,value
NC[C@H]1O[C@H](O[C@H]2[C@H](O)[C@@H](O[C@H]3O[C@H](CO)[C@@H](O)[C@H](N)[C@H]3O)[C@H](N)C[C@@H]2N)[C@H](N)C[C@@H]1O [TOB],"MIC, broth microdilution","P. aeruginosa; AA139 selection 4X, plate 1, colony 1, drug-free passage 5","1, 1 µg/mL"
same,"MIC, broth microdilution","P. aeruginosa; AA139 selection 4X, plate 1, colony 2, drug-free passage 1","0.5, 0.5 µg/mL"
same,"MIC, broth microdilution","P. aeruginosa; AA139 selection 4X, plate 1, colony 2, drug-free passage 5","0.5, 0.5 µg/mL"
same,"MIC, broth microdilution","P. aeruginosa; AA139 selection 4X, plate 1, colony 3, drug-free passage 1",1 µg/mL
same,"MIC, broth microdilution","P. aeruginosa; AA139 selection 4X, plate 1, colony 3, drug-free passage 5",0.5 µg/mL
same,"MIC, broth microdilution","P. aeruginosa; AA139 selection 4X, plate 1, colony 4, drug-free passage 1","0.5, 0.5 µg/mL"
same,"MIC, broth microdilution","P. aeruginosa; AA139 selection 4X, plate 1, colony 4, drug-free passage 5","0.5, 0.5 µg/mL"
same,"MIC, broth microdilution","P. aeruginosa; AA139 selection 4X, plate 1, colony 5, drug-free passage 1",1 µg/mL
same,"MIC, broth microdilution","P. aeruginosa; AA139 selection 4X, plate 1, colony 5, drug-free passage 5",0.5 µg/mL
same,"MIC, broth microdilution","P. aeruginosa; AA139 selection 4X, plate 1, colony 6, drug-free passage 1",1 µg/mL
same,"MIC, broth microdilution","P. aeruginosa; AA139 selection 4X, plate 1, colony 6, drug-free passage 5",0.5 µg/mL
same,"MIC, broth microdilution","P. aeruginosa; AA139 selection 4X, plate 1, colony 7, drug-free passage 1","0.5, 0.5 µg/mL"
same,"MIC, broth microdilution","P. aeruginosa; AA139 selection 4X, plate 1, colony 7, drug-free passage 5","0.5, 0.5 µg/mL"
same,"MIC, broth microdilution","P. aeruginosa; AA139 selection 4X, plate 2, colony 1, drug-free passage 1","1, 1 µg/mL"
same,"MIC, broth microdilution","P. aeruginosa; AA139 selection 4X, plate 2, colony 1, drug-free passage 5","1, 1 µg/mL"
same,"MIC, broth microdilution","P. aeruginosa; AA139 selection 4X, plate 2, colony 2, drug-free passage 1","0.5, 0.5 µg/mL"
same,"MIC, broth microdilution","P. aeruginosa; AA139 selection 4X, plate 2, colony 2, drug-free passage 5","0.5, 0.5 µg/mL"
same,"MIC, broth microdilution","P. aeruginosa; AA139 selection 4X, plate 2, colony 3, drug-free passage 1",1 µg/mL
same,"MIC, broth microdilution","P. aeruginosa; AA139 selection 4X, plate 2, colony 3, drug-free passage 5",0.5 µg/mL
same,"MIC, broth microdilution","P. aeruginosa; AA139 selection 4X, plate 2, colony 4, drug-free passage 1","0.5, 0.5 µg/mL"
same,"MIC, broth microdilution","P. aeruginosa; AA139 selection 4X, plate 2, colony 4, drug-free passage 5","0.5, 0.5 µg/mL"
same,"MIC, broth microdilution","P. aeruginosa; AA139 selection 4X, plate 2, colony 5, drug-free passage 1",1 µg/mL
same,"MIC, broth microdilution","P. aeruginosa; AA139 selection 4X, plate 2, colony 5, drug-free passage 5",0.5 µg/mL
same,"MIC, broth microdilution","P. aeruginosa; AA139 selection 4X, plate 2, colony 6, drug-free passage 1","0.5, 0.5 µg/mL"
same,"MIC, broth microdilution","P. aeruginosa; AA139 selection 4X, plate 2, colony 6, drug-free passage 5","0.5, 0.5 µg/mL"
same,"MIC, broth microdilution","P. aeruginosa; AA139 selection 4X, plate 2, colony 7, drug-free passage 1","0.5, 0.5 µg/mL"
same,"MIC, broth microdilution","P. aeruginosa; AA139 selection 4X, plate 2, colony 7, drug-free passage 5","0.5, 0.5 µg/mL"
same,"MIC, broth microdilution","P. aeruginosa; AA139 selection 8X, plate 1, colony 1, drug-free passage 1",0.5 µg/mL
same,"MIC, broth microdilution","P. aeruginosa; AA139 selection 8X, plate 1, colony 1, drug-free passage 5",2 µg/mL
same,"MIC, broth microdilution","P. aeruginosa; AA139 selection 8X, plate 1, colony 2, drug-free passage 1",1 µg/mL
same,"MIC, broth microdilution","P. aeruginosa; AA139 selection 8X, plate 1, colony 2, drug-free passage 5",0.5 µg/mL
same,"MIC, broth microdilution","P. aeruginosa; AA139 selection 8X, plate 1, colony 3, drug-free passage 1","0.5, 0.5 µg/mL"
same,"MIC, broth microdilution","P. aeruginosa; AA139 selection 8X, plate 1, colony 3, drug-free passage 5","0.5, 0.5 µg/mL"
same,"MIC, broth microdilution","P. aeruginosa; AA139 selection 8X, plate 1, colony 4, drug-free passage 1",1 µg/mL
same,"MIC, broth microdilution","P. aeruginosa; AA139 selection 8X, plate 1, colony 4, drug-free passage 5",0.5 µg/mL
same,"MIC, broth microdilution","P. aeruginosa; AA139 selection 8X, plate 1, colony 5, drug-free passage 1","0.5, 0.5 µg/mL"
same,"MIC, broth microdilution","P. aeruginosa; AA139 selection 8X, plate 1, colony 5, drug-free passage 5","0.5, 0.5 µg/mL"
same,"MIC, broth microdilution","P. aeruginosa; AA139 selection 8X, plate 2, colony 1, drug-free passage 1","0.5, 0.5 µg/mL"
same,"MIC, broth microdilution","P. aeruginosa; AA139 selection 8X, plate 2, colony 1, drug-free passage 5","0.5, 0.5 µg/mL"
same,"MIC, broth microdilution",E. coli; E. coli AUD172 parent strain not exposed to drug,8 µg/mL
same,"MIC, broth microdilution","E. coli; E. coli AUD172 spontaneous mutant, AA139 selection 4X, plate 2, colony 2, drug-free passage 1",8 µg/mL
same,"MIC, broth microdilution","E. coli; E. coli AUD172 spontaneous mutant, AA139 selection 4X, plate 2, colony 2, drug-free passage 5",16 µg/mL
